Laboratory results: paper PMC12064818, “A general assay platform to study protein pharmacology using ligand-dependent structural dynamics” (Nature Communications, 2025)

Experiments:
[1] = molecular target: E. coli Lig-N-HiBiT (DNA ligase) (Escherichia coli, UniProt P15042); test: biochemical
B. malayi iPGM-C-HiBiT = B. malayi iPGM-C-HiBiT (Brugia malayi, UniProt Q4VWF8); test: biochemical
[2] = molecular target: FLuc-N-HiBiT (firefly luciferase) (Photinus pyralis, UniProt P08659, form not given/L550V); test: SDR assay, FLuc-N-HiBiT; settings: for 10 nM FLuc-N-HiBiT + 10 mM ATP, Mean / 10 nM FLuc-N-HiBiT No ATP, Mean: Log [PTC124]
P. pyralis FLuc = P. pyralis FLuc (Photinus pyralis, UniProt P08659); test: FLuc enzymatic luminescence assay, P. pyralis FLuc; assay type: biochemical; settings: FLuc enzymatic assay
How it was run: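 Runs with and without 10 µM ATP: compounds were pre-incubated with FLuc (1–10 nM, PBS pH 7.4) at ambient temperature, light-protected, for 30–60 min. Luminescence was imaged 5 min after adding 10 µM D-luciferin (final). Inhibition was scaled between DMSO neutral and no-enzyme controls.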

Sequence of FLuc-N-HiBiT (firefly luciferase) (P08659 2-550 L550V, form open): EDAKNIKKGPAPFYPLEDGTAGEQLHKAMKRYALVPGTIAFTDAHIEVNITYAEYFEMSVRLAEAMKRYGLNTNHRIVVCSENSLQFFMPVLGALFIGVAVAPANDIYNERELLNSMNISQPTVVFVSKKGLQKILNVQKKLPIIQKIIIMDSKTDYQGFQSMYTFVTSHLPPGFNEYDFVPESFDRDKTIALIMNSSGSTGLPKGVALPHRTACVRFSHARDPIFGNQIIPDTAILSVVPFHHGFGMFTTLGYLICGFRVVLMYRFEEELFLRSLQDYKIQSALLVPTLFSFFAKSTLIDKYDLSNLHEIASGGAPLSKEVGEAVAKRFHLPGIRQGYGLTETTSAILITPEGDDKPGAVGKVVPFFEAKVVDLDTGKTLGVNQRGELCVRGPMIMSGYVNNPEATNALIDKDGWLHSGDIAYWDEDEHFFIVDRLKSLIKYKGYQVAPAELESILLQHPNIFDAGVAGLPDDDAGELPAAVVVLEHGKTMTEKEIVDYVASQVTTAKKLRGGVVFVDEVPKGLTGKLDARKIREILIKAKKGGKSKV
Sequence of P. pyralis FLuc (P08659 whole entry): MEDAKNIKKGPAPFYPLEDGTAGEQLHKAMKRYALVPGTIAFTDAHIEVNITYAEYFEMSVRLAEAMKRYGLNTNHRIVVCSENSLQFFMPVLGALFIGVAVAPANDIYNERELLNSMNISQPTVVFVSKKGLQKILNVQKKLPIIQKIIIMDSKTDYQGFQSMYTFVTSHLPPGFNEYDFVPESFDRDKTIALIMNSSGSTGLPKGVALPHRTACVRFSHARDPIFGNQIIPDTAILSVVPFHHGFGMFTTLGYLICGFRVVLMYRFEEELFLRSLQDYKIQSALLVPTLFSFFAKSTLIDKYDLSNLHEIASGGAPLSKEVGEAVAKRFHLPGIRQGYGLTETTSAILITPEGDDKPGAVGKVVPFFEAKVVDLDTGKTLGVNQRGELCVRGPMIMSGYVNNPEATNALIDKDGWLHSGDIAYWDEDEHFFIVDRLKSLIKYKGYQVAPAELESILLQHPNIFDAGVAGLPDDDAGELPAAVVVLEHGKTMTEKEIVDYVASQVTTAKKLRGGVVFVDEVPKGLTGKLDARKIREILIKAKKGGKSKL
Sequence of E. coli Lig-N-HiBiT (DNA ligase) (P15042 2-671): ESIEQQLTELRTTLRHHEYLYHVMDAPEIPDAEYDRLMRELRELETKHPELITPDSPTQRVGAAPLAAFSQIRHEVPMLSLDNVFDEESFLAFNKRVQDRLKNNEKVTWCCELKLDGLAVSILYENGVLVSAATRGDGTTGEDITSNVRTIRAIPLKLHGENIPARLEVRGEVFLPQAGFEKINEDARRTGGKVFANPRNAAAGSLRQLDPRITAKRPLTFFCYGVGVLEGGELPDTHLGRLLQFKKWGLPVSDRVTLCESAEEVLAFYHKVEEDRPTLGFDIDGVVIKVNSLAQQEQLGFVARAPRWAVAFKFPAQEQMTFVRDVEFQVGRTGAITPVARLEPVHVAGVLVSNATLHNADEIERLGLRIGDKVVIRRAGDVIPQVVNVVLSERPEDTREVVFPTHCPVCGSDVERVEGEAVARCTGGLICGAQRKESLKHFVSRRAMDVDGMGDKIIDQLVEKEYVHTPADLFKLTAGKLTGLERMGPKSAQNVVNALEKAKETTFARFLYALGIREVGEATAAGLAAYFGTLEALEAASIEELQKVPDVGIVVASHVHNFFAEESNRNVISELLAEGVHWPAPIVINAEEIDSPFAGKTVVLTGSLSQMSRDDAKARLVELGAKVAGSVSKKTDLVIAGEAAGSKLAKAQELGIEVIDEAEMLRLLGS
Sequence of B. malayi iPGM-C-HiBiT (Q4VWF8 2-515): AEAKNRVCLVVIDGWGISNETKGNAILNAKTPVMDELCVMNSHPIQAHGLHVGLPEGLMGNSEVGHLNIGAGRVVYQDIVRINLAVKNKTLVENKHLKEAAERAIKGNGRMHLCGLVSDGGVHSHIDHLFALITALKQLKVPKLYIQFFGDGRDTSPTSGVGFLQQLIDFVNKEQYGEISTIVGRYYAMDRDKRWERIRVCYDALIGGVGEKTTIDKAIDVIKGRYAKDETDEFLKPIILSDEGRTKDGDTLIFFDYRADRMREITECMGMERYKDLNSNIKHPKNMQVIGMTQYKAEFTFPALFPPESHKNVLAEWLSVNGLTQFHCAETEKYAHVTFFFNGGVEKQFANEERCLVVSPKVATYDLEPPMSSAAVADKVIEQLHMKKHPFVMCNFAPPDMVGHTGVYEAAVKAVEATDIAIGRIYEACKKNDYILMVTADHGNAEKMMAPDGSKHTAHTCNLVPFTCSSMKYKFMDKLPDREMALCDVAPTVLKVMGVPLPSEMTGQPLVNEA

SMILES: Nc1ncnc2c1ncn2[C@@H]1O[C@H](COP(=O)(O)OP(=O)(O)OP(=O)(O)O)[C@@H](O)[C@H]1O [ATP]
- EC50 [1]: ≥ 100 µM

SMILES: CC(C)C[C@H](NC(=O)[C@H](Cc1ccc(O)cc1)NC(=O)[C@@H]1CSCC(=O)N[C@H](Cc2ccc(O)cc2)C(=O)N[C@@H](CC(=O)O)C(=O)N[C@@H](Cc2ccc(O)cc2)C(=O)N2CCC[C@H]2C(=O)NCC(=O)N[C@@H](CC(=O)O)C(=O)N[C@@H](Cc2ccc(O)cc2)C(=O)N1)C(=O)N[C@@H](Cc1ccc(O)cc1)C(=O)NCC(=O)N[C@H](C(=O)N[C@@H](CS)C(=O)NCC(N)=O)[C@@H](C)O [Ce-2]
- EC50 (B. malayi iPGM-C-HiBiT): 0.0407 µM

SMILES: O=C(O)c1cccc(-c2noc(-c3ccccc3F)n2)c1 [PTC124, reference compound]
- pSDR50, FLuc-N-HiBiT (10 nM) ([2]; 0 μM ATP): 6.64 ± 0.05
- pSDR50, FLuc-N-HiBiT (10 nM) ([2]; 10 μM ATP): 8.07 ± 0.05
- 10 nM FLuc-N-HiBiT + 10 mM ATP, Mean ([2]; M (SDR) -4.48): 41609.1 RLU
- 10 nM FLuc-N-HiBiT No ATP, Mean ([2]; M (SDR) -4.48): 44446.2 RLU
- 10 nM FLuc-N-HiBiT + 10 mM ATP, Mean ([2]; M (SDR) -4.96): 42409.7 RLU
- 10 nM FLuc-N-HiBiT No ATP, Mean ([2]; M (SDR) -4.96): 44381.0 RLU
- 10 nM FLuc-N-HiBiT + 10 mM ATP, Mean ([2]; M (SDR) -5.44): 42866.9 RLU
- 10 nM FLuc-N-HiBiT No ATP, Mean ([2]; M (SDR) -5.44): 43085.6 RLU
- 10 nM FLuc-N-HiBiT + 10 mM ATP, Mean ([2]; M (SDR) -5.91): 43432.3 RLU
- 10 nM FLuc-N-HiBiT No ATP, Mean ([2]; M (SDR) -5.91): 42891.6 RLU
- 10 nM FLuc-N-HiBiT + 10 mM ATP, Mean ([2]; M (SDR) -6.39): 43449.2 RLU
- 10 nM FLuc-N-HiBiT No ATP, Mean ([2]; M (SDR) -6.39): 36744.1 RLU
- 10 nM FLuc-N-HiBiT + 10 mM ATP, Mean ([2]; M (SDR) -6.87): 43724.9 RLU
- 10 nM FLuc-N-HiBiT No ATP, Mean ([2]; M (SDR) -6.87): 28974.8 RLU
- 10 nM FLuc-N-HiBiT + 10 mM ATP, Mean ([2]; M (SDR) -7.35): 42289.0 RLU
- 10 nM FLuc-N-HiBiT No ATP, Mean ([2]; M (SDR) -7.35): 26642.9 RLU
- 10 nM FLuc-N-HiBiT + 10 mM ATP, Mean ([2]; M (SDR) -7.82): 38396.4 RLU
- 10 nM FLuc-N-HiBiT No ATP, Mean ([2]; M (SDR) -7.82): 23375.2 RLU
- 10 nM FLuc-N-HiBiT + 10 mM ATP, Mean ([2]; M (SDR) -8.30): 32370.1 RLU
- 10 nM FLuc-N-HiBiT No ATP, Mean ([2]; M (SDR) -8.30): 21721.8 RLU
- 10 nM FLuc-N-HiBiT + 10 mM ATP, Mean ([2]; M (SDR) -8.78): 29426.2 RLU
- 10 nM FLuc-N-HiBiT No ATP, Mean ([2]; M (SDR) -8.78): 22027.4 RLU
- 10 nM FLuc-N-HiBiT + 10 mM ATP, Mean ([2]; M (SDR) -9.25): 28882.5 RLU
- 10 nM FLuc-N-HiBiT No ATP, Mean ([2]; M (SDR) -9.25): 22062.2 RLU
- 10 nM FLuc-N-HiBiT + 10 mM ATP, Mean ([2]; M (SDR) -9.73): 28374.1 RLU
- 10 nM FLuc-N-HiBiT No ATP, Mean ([2]; M (SDR) -9.73): 21924.6 RLU
- 10 nM FLuc-N-HiBiT + 10 mM ATP, Mean ([2]; M (SDR) -10.21): 28052.8 RLU
- 10 nM FLuc-N-HiBiT No ATP, Mean ([2]; M (SDR) -10.21): 22527.7 RLU
- 10 nM FLuc-N-HiBiT + 10 mM ATP, Mean ([2]; M (SDR) -10.69): 27509.0 RLU
- 10 nM FLuc-N-HiBiT No ATP, Mean ([2]; M (SDR) -10.69): 22231.2 RLU
- 10 nM FLuc-N-HiBiT + 10 mM ATP, Mean ([2]; M (SDR) -11.16): 27726.0 RLU
- 10 nM FLuc-N-HiBiT No ATP, Mean ([2]; M (SDR) -11.16): 21138.2 RLU
- 10 nM FLuc-N-HiBiT + 10 mM ATP, Mean ([2]; M (SDR) -11.64): 27670.3 RLU
- 10 nM FLuc-N-HiBiT No ATP, Mean ([2]; M (SDR) -11.64): 21494.9 RLU

SMILES: CC(CNC(=O)C1CCN(C(=O)c2ncn3c2COC(c2ccccc2)C3)CC1)c1ccccc1 (centres unmarked) [compound 00449795]
- Efficacy (%) FLuc E (P. pyralis FLuc; Clade S follow-up): -95.72%
- IC50 (P. pyralis FLuc; read-out: IC50 or SDR50 (mM) FLuc E): 0.00197 mM
